From patent US12403184B2, “Compositions and methods for treating neurodegenerative disroders” (priority 2018, dated 2025)
Where no end group is shown, it is not given here.

Key:
ATAD3A = target: T1, ATAD3A (Homo sapiens, UniProt Q9NVI7, K135E); assay: ATAD3A dimerization by western blot, HEK293 cells; type: cell-based
T1 construct: expressed in transfected cells; host or cells: HEK293 cells
T1 sequence (Q9NVI7 51-586 K135E limits assumed): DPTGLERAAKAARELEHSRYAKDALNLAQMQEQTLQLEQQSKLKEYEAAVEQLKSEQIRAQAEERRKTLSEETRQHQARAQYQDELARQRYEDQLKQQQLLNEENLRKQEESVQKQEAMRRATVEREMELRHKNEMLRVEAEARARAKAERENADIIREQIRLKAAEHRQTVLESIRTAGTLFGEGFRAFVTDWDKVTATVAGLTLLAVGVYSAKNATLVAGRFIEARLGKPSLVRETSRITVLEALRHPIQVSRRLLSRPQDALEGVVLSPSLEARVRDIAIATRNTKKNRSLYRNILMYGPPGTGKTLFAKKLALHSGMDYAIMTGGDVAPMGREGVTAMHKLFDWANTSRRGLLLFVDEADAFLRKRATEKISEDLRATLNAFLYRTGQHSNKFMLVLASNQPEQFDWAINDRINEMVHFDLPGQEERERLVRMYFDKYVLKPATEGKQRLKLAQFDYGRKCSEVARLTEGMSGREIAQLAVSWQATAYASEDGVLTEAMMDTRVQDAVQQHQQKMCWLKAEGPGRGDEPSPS
Excerpt: Human ATAD3A was amplified from HEK293T cDNA samples through standard PCR methods, and then cloned into pCMV-Myc, pcDNA3.1 (+)-Flag, pEGFP-N1 vectors. ATAD3A truncated mutants were constructed using overlap cloning techniques. ATAD3A point mutant K358E, and K135 mutants (K135E, K135R, K135Q, and K135A) and S2S48 mutants were constructed by using QuickChange II Site-Directed Mutagenesis Kit (Agilent Technologies). Drp1 truncated mutants were described in our previous study. Cells were transfected with plasmids using TransIT®-2020 transfection reagent (Minis Bio LLC, Madison, WI) according to manufacturer's instruction.
To analyze dimerization of ATAD3A under non-reducing conditions, the cells or tissues were harvested and lysed with total lysates buffer. An equal amount of proteins was subject to 8% SDS-PAGE analysis in the presence or absence of β-mercaptoethanol (β-ME). For in vitro BMH crosslinking, the cell lysates were incubated with 1 mM BMH at r.t. for up to 25 min and quenched with 0.1% β-ME, followed by SDS-PAGE analysis. For in-vivo crosslinking, the cells were treated with cell-permeable crosslinker BMH (1 mM) for 20 min at 37° C. After crosslinking, the cells were quenched in PBS with 0.1% β-ME. For DSP crosslinking, the cells were treated with cell-permeable crosslinker for 5 min at 37° C., followed by quenching and washing with 10 mM Glycine in PBS. For formaldehyde (FA) crosslinking, the cells were incubated with PBS buffer containing 1% FA for 20 min at r.t., and the crosslinking reaction was terminated by washing in PBS containing 100 mM glycine. The cells were then lysed and subject to 8% SDS-PAGE analysis. For DTSSP crosslinking of proteins in mitochondrial fractions, isolated mitochondria samples were suspended in the mitochondrial lysis buffer (250 mM sucrose, 20 mM HEPES-NaOH, pH 7.5, 10 mM KCl, 1.5 mM MgCl2, 1 mM EDTA, 1 mM EGTA and protease inhibitor). An equal amount of crude mitochondria was incubated at 30° C. in the presence of 0.5 mM DTSSP. The cross-linking was terminated by the addition of SDS loading buffer. […]

Drp1 = Drp1 mitochondrial level and Drp1 polymerization by western blot in HD mouse striatal cells; type: cell-based
Experimental: Cells were washed with cold phosphate-buffered saline (PBS) and incubated on ice in mitochondrial lysis buffer (250 mM sucrose, 20 mM HEPES-NaOH, pH 7.5, 10 mM KCl, 1.5 mM MgCl2, 1 mM EDTA, 1 mM EGTA, protease inhibitor cocktail, and phosphatase inhibitor cocktail) for 30 min. The cells were scraped and then disrupted 15 times by repeated aspiration through a 25-gauge needle. Mouse brains were minced and homogenized in mitochondrial lysis buffer to release mitochondria. The homogenates were spun at 800×g for 10 min at 4° C., and the resulting supernatants were spun at 12,000×g for 20 min at 4° C. The pellets were washed with lysis buffer and spun at 12,000×g again for 20 min at 4° C. The final pellets were suspended in lysis buffer containing 1% Triton X-100 and were mitochondrial-rich lysate fractions. The mitochondrial protein voltage-dependent anion channel (VDAC) was used as a loading control.
Protein concentration was measured by protein assay dye reagents (Bio-rad). The protein was resuspended in Laemmli buffer, loaded on SDS-PAGE, and transferred onto nitrocellulose membranes. Membranes were probed with the indicated antibodies, followed by visualization with ECL. Representative blots have been cropped for presentation.

HdhQ7 and HdhQ111 cells = assay: Mitochondrial respiratory activity (Seahorse analyzer); type: cell-based, mouse
Experimental: Mitochondrial respiration activity in HdhQ7 and HdhQ111 cells was analyzed using a Seahorse Bioscience XFp Extracellular Flux Analyzer. The cells were seeded in XFp […] microplates at 6,000 cells per well in 50 μl of growth medium. One hour prior to measuring oxygen consumption, the cell culture media was replaced with XF assay medium and maintained in a non-CO2 incubator for 1 h. The sensor cartridges were placed in the XFp Analyzer according to the manufacturer's instructions for the Mito Stress Test kit. In brief, mitochondrial function was determined by the sequential injection of oligomycin A (2.5 μg/mL), FCCP (1 μM), and antimycin A (4 μM). Following each experiment, the total cellular number of each well was determined using DAPI staining.

YGRKKRRQRRRGGEDKRKT-NH2 [DA1, YGRKKRRQRRR-GG-EDKRKT-NH2]
dimerization of ATAD3A (ATAD3A; HEK293 cells expressing ATAD3A acetyl-deficient mutant K135E): abolished
dimerization of ATAD3A (ATAD3A; HEK293 cells expressing ATAD3A ΔN50 mutant, 1 μM for 48 h): abolished
dimerization of ATAD3A (ATAD3A; normal cells or cells expressing ATAD3A wildtype): minor effect
Drp1 polymerization (Drp1; HD mouse striatal cells): abrogated
Drp1 translocation to the mitochondria (Drp1; HD mouse striatal cells, 1 μM/day for 4 days): abrogated
inhibitory effect on Drp1 tetramer formation (Drp1; upon ATAD3A knockdown): abolished upon ATAD3A knockdown
mitochondrial respiratory activity (HdhQ7 and HdhQ111 cells; HdhQ7 cells): minor effects
ATP production (HdhQ7 and HdhQ111 cells; HdhQ111 cells): improved
maximal respiratory capacity (HdhQ7 and HdhQ111 cells; HdhQ111 cells): improved
spare respiratory capacity (HdhQ7 and HdhQ111 cells; HdhQ111 cells): improved
mitochondrial respiratory defects (HdhQ7 and HdhQ111 cells; HdhQ111 cells, 1 μM/day for 4 days): attenuated
